Laboratory results: US6624182B1, “Hydroxyphenylvinylthiazoles” (Ciba Specialty Chemicals Corporation, priority 1999, dated 2003)

What was measured:
Experiment in all cases: Determination of the minimum inhibitory concentration (MIC value) in microtitre plates
C. albicans = format: cell-based, Candida albicans ATCC 10231; conditions: optical density at 620 nm, 48 hours at 37° C., MIC = ≦20% growth; tested at 100; 10 and 1 ppm (approximate values); (2), (3), (4) at 120; 60; 30; 15; 7.5; 3.75 ppm
Description: (§1) Determination of the Minimum Inhibitory Concentration (MIC Value) in Microtitre Plates Nutrient Medium Casein/soybean flour/peptone bouillon for the preparation of preliminary cultures of the test bacteria and yeast. Mycological slant agar for the preliminary culture of moulds Examples of Test Microbes: Yeast: Candida albicans ATCC 10231 Procedure: The test substances are pre-dissolved in dimethyl sulfoxide (DMSO) and tested in a series of dilutions of 1:2. Bacteria and yeast are cultured overnight in CASO bouillon; the mould is cultured on myco-logical slant agar and sponged off with 10 ml of 0.85% sodium chloride solution (+0.1% Triton X-100). All the test microbes are adjusted to a germ count of 1−5×10^6 KBE/ml using 0.85% sodium chloride solution. The test substances are pre-pipetted into microtitre plates in an amount of 8 μl per well. Pre-diluted microbe suspensions are diluted 1:100 in CASO bouillon (bacteria and yeast) or Sabouraud 2% glucose bouillon (mould) and added to the test substances in an amount of 192 μl per well. The test batches are incubated for 48 hours at 37° C. (bacteria and yeast) or for 5 days at 28° C. (mould). After incubation, the growth is determined by means of the clouding of the test batches (optical density) at 620 nm in a microplate reader. The concentration of substance at which (compared with the growth control) a marked inhibition of growth (≦20% growth) of the test microbes can be observed is given as the minimum inhibitory concentration (MIC value). One microtitre plate is used per test microbe and substance concentration. All substances are tested in duplicate.

E. coli = format: cell-based, Escherichia coli NCTC 8196; conditions: optical density at 620 nm, 48 hours at 37° C., MIC = ≦20% growth; tested at 100; 10 and 1 ppm (approximate values); (2), (3), (4) at 120; 60; 30; 15; 7.5; 3.75 ppm
Description: as §1, with “Bacteria: Escherichia coli NCTC 8196” for “Yeast: Candida albicans ATCC 10231”

S. aureus = format: cell-based; conditions: optical density at 620 nm, 48 hours at 37° C., MIC = ≦20% growth; tested at 100; 10 and 1 ppm (approximate values); (2), (3), (4) at 120; 60; 30; 15; 7.5; 3.75 ppm
Text: as §1, with “Bacteria: Staphylococcus hominis DMS 20328” for “Yeast: Candida albicans ATCC 10231”

P. aeruginosa = format: cell-based, Pseudomonas aeruginosa CIP A-22; conditions: optical density at 620 nm, 48 hours at 37° C., MIC = ≦20% growth; tested at 100; 10 and 1 ppm (approximate values); (2), (3), (4) at 120; 60; 30; 15; 7.5; 3.75 ppm
Description: as §1, with “Bacteria: Pseudomonas aeruginosa CIP A-22” for “Yeast: Candida albicans ATCC 10231”

A. niger = format: cell-based, Aspergillus niger ATCC 6275; conditions: optical density at 620 nm, 5 days at 28° C., MIC = ≦20% growth; tested at 100; 10 and 1 ppm (approximate values); (2), (3), (4) at 120; 60; 30; 15; 7.5; 3.75 ppm
Description: as §1, with “Mould: Aspergillus niger” for “Yeast: Candida albicans”, “6275” for “10231”

CC(C)(C)c1csc(/C=C/c2cccc(O)c2)n1 [Compound of formula (17)]
>100 ppm: MIC values in ppm C. albicans (C. albicans) | MIC values in ppm E. coli (E. coli) | MIC values in ppm S. aureus (S. aureus) | MIC values in ppm P. aeruginosa (P. aeruginosa) | MIC values in ppm A. niger (A. niger)

COc1ccc(/C=C/c2nc(C(C)(C)C)cs2)cc1O [Compound of formula (18)]
>100 ppm: MIC values in ppm C. albicans (C. albicans) | MIC values in ppm E. coli (E. coli) | MIC values in ppm S. aureus (S. aureus) | MIC values in ppm P. aeruginosa (P. aeruginosa) | MIC values in ppm A. niger (A. niger)

CCOc1cc(/C=C/c2nc(C(C)(C)C)cs2)ccc1O [Compound of formula (19)]
>100 ppm: MIC values in ppm C. albicans (C. albicans) | MIC values in ppm E. coli (E. coli) | MIC values in ppm S. aureus (S. aureus) | MIC values in ppm P. aeruginosa (P. aeruginosa) | MIC values in ppm A. niger (A. niger)

COc1cc(/C=C/c2nc(C(C)(C)C)cs2)ccc1O [Compound of formula (20)]
>100 ppm: MIC values in ppm C. albicans (C. albicans) | MIC values in ppm E. coli (E. coli) | MIC values in ppm S. aureus (S. aureus) | MIC values in ppm P. aeruginosa (P. aeruginosa) | MIC values in ppm A. niger (A. niger)

COc1ccc(/C=C/c2nc(C(C)(C)C)cs2)c(O)c1 [Compound of formula (21)]
>100 ppm: MIC values in ppm C. albicans (C. albicans) | MIC values in ppm E. coli (E. coli) | MIC values in ppm S. aureus (S. aureus) | MIC values in ppm P. aeruginosa (P. aeruginosa) | MIC values in ppm A. niger (A. niger)

COc1cc(/C=C/c2nc(C(C)(C)C)cs2)cc(O)c1OC [Compound of formula (22)]
>100 ppm: MIC values in ppm C. albicans (C. albicans) | MIC values in ppm E. coli (E. coli) | MIC values in ppm S. aureus (S. aureus) | MIC values in ppm P. aeruginosa (P. aeruginosa) | MIC values in ppm A. niger (A. niger)

Cc1cc(/C=C/c2nc(C(C)(C)C)cs2)cc(C)c1O [Compound of formula (23)]
>100 ppm: MIC values in ppm C. albicans (C. albicans) | MIC values in ppm E. coli (E. coli) | MIC values in ppm S. aureus (S. aureus) | MIC values in ppm P. aeruginosa (P. aeruginosa) | MIC values in ppm A. niger (A. niger)

Cc1cccc(/C=C/c2nc(C(C)(C)C)cs2)c1O [Compound of formula (24)]
>100 ppm: MIC values in ppm C. albicans (C. albicans) | MIC values in ppm E. coli (E. coli) | MIC values in ppm S. aureus (S. aureus) | MIC values in ppm P. aeruginosa (P. aeruginosa) | MIC values in ppm A. niger (A. niger)

CC(C)(C)c1csc(/C=C/c2ccc(OCc3ccccc3)cc2O)n1 [Compound of formula (25)]
>100 ppm: MIC values in ppm C. albicans (C. albicans) | MIC values in ppm E. coli (E. coli) | MIC values in ppm S. aureus (S. aureus) | MIC values in ppm P. aeruginosa (P. aeruginosa) | MIC values in ppm A. niger (A. niger)

COc1cc(O)ccc1/C=C/c1nc(C(C)(C)C)cs1 [Compound of formula (26)]
>100 ppm: MIC values in ppm C. albicans (C. albicans) | MIC values in ppm E. coli (E. coli) | MIC values in ppm S. aureus (S. aureus) | MIC values in ppm P. aeruginosa (P. aeruginosa) | MIC values in ppm A. niger (A. niger)

Oc1ccc(/C=C/c2nc(-c3ccc(N4CCCC4)cc3)cs2)cc1 [Compound of formula (27)]
>100 ppm: MIC values in ppm C. albicans (C. albicans) | MIC values in ppm E. coli (E. coli) | MIC values in ppm S. aureus (S. aureus) | MIC values in ppm P. aeruginosa (P. aeruginosa) | MIC values in ppm A. niger (A. niger)
